Source: PubChem BioAssay AID449764 (Southern Research Specialized Biocontainment Screening …, 2010)

System: Mycobacterium tuberculosis H37Rv growth inhibition, no glycerol
Assay: Confirmatory growth inhibition assay, Mycobacterium tuberculosis H37Rv, absence of glycerol (AID 449764);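 note: growth read after 7 days of incubation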
Conditions: for IC90: measured here: IC90 growth inhibition

Structure (SMILES) | IC50 [µM] | IC90 [µM]
CN(CCO)c1cc(Sc2nc3ccccc3s2)c2nonc2c1[N+](=O)[O-] | 74.4 | 95
COC(=O)c1ccc(/C=C/c2c(-c3ccsc3)oc3ccc(N4CCOCC4)cc23)cc1 | 30.6 | 53.6
COc1ccc(-c2cc(-c3ccccc3)c(C#N)c(S(C)=O)n2)cc1 (stereo unspecified) | 91.8 | > 100
Cc1ccsc1/C=C1\SC(N2CCOCC2)=NC1=O | 23.4 | 27
Cc1cccc(C(=O)OCC(=O)N2CCc3ccccc3C2)c1O | 24.8 | > 25
Cc1ccc(C2=NN(C)c3nc4ccccc4n3C2)cc1 | 59.3 | > 100
CC1=C(C)C(=O)C(CCCCC#CCCCC#CCO)=C(C)C1=O | 24 | 26.2
O=C(C=C=Nc1ccccc1)C(=O)N=C=Cc1ccccc1 | 12.4 | 20.5
C[N+](C)(CCCCCC[N+](C)(C)CCCN1C(=O)c2cccc3cccc(c23)C1=O)CCCN1C(=O)c2cccc3cccc(c23)C1=O | 3.64 | 5.15
Cc1ccccc1Nc1nc(N)nc(COC(=O)c2ccc([N+](=O)[O-])o2)n1 | 88.7 | > 100
Cc1ccc(C2C3=C(CC(C)(C)CC3=O)N=C3c4ccccc4C(=O)C32)cc1 (stereo unspecified) | 63.6 | 87.5
CCc1ccc2oc(-c3cc(N=Cc4cccc(OC)c4O)ccc3O)nc2c1 | 63.8 | 95
COc1ccc(C(C)=O)cc1COC(=O)c1ccc2ccccc2n1 | 60.3 | > 100
CN1CCN(c2cc(-c3ccccc3)nc3cc(-c4ccc(F)cc4)nn23)CC1 | 16.4 | 42.2
CCOc1cccc(C=Nc2cc(C)cc(C)c2O)c1O | 31.2 | 41.4
Cc1nc(N2CCN(c3ccccn3)CC2)c2c(C)c(C(=O)N3CCN(c4ccc(F)cc4)CC3)sc2n1 | 11.2 | 12.9
COc1ccc(/C=N/Nc2cc(C)nc3ccc(OC)cc23)c(OC)c1 | 16.3 | 19.7
CCOc1ccc(OCCSc2ccc(S(=O)(=O)N3CCN(C)CC3)cn2)cc1 | 25.5 | 28.8
CCO[C@H]1OC(C(=O)NCc2nc3ccccc3[nH]2)=C[C@@H](c2csc3ccccc23)[C@@H]1CCCO | 36.5 | 49.2
Cn1nnnc1Sc1ncnc2scc(-c3cc4ccccc4o3)c12 | 5.11 | 12.1
Cc1ccc(C(=O)OCc2nnc(-c3ccccc3)o2)s1 | 20.4 | 32.2
CSC(=S)NCc1cccnc1 | 29.1 | 41.9
O=C(NNC1CC(=O)N(c2ccc(Br)cc2)C1=O)c1ccccn1 (stereo unspecified) | 29.5 | > 100

Structure (SMILES) | IC50 [µM] | IC90 [µM]
CN(/N=C/c1cc(Br)cc(Br)c1O)c1cccc(C(F)(F)F)n1 | 7.9 | 11.2
Cc1[nH]n(S(=O)(=O)Cc2ccccc2)c(=O)c1N=Nc1ccccc1Cl | 18.3 | 28.7
CC(C(Sc1ccccc1N)c1ccccc1)[N+](=O)[O-] (stereo unspecified) | – | > 100
CCOC(=O)c1cc(-c2ccc(N3CCOCC3)cc2)nn1-c1ccccc1 | 27.9 | 58.1
COCCCN=C1NN=C(c2cc(C)n(Cc3ccco3)c2C)CS1 | 70.7 | 92.2
O=C(/C=C/c1ccc([N+](=O)[O-])cc1)NC1CC2CCC1C2 (stereo unspecified) | 68.7 | > 100
O=[N+]([O-])c1cc(C=Nc2ccc3ccccc3c2)ccc1Br | 34.5 | 44.5
CCN(CC)CCCNc1nc2cc(OC)c(OC)cc2c2nc(-c3ccccc3)nn12 | 11.1 | 12.8
c1ccc(-c2n[nH]c(-c3ccccn3)n2)cc1 | 20.5 | 27.5
CCOc1cc(CNCCCN2CCOCC2)cc(Br)c1OCC(=O)Nc1cccc(C(F)(F)F)c1 | 23.3 | 32
CCOC(=O)Cc1csc(NC(=O)c2c(O)c3c(n(CC(C)C)c2=O)CCCC3)n1 | 18.5 | 36.7
COc1ccccc1OCCN1CSC(=S)N(C)C1 | 17.8 | 23.9
CC(=O)n1cc(/C=C2/N=C(c3ccccc3)OC2=O)c2ccccc21 | 43.4 | > 100
C[n+]1c(-c2ccccc2)cc(CCCCc2cc(-c3ccccc3)[n+](C)c(-c3ccccc3)c2)cc1-c1ccccc1 | 24.8 | 28.3
CNc1ccccc1C(=O)OC(C)C(=O)Nc1ccc(Cl)cn1 (stereo unspecified) | 35.3 | 65.3
COc1ccc(CCNc2nc(N3CCCCC3)nc(N3CCCCC3)n2)cc1OC | 18 | 23.3
O=C(Cn1ncc(Cl)c(Cl)c1=O)c1ccc2c(c1)OCCO2 | 10.4 | 15.7
C=CCN(CC(=O)c1sc(C(=O)OCC)nc1C)c1cccc(Br)c1 | 20.8 | 32.6
COC(=O)C1=C(c2ccc(OCc3ccccc3)cc2)C[C@@H]2CC[C@H]1N2C(=O)NC1CCN(Cc2ccccc2)CC1 | 25.3 | 29.1
Cc1cc(C2N=C(N)Nc3nc4ccccc4n32)c(C)n1-c1ccccc1Cl (stereo unspecified) | 17.3 | 21.4
CSc1ncc(C(=O)Nc2ccc(Br)cn2)c(C)n1 | 1.54 | 2.93
CC(=O)c1cccc(NC(=S)NC2CCCCCCC2)c1 | 27.3 | > 100
N#Cc1c(-c2ccccc2)c(-c2ccccc2)nn(CC(=O)NNC(=O)Nc2ccc(Cl)c(Cl)c2)c1=O | 47.9 | 54.7

Structure (SMILES) | IC50 [µM] | IC90 [µM]
CCOc1cc(/C=C2\COc3ccccc3C2=O)cc(Br)c1OCC(=O)N(C)C | 6.73 | 11.5
c1cc(Nc2cccc3nccnc23)c2nccnc2c1 | 24.4 | 28.3
CCc1ccc(N=Nc2ccc(O)c3[nH]cnc23)cc1 | 40.7 | > 100
CN1/C(=C\C(=O)COC(=O)c2ccc([N+](=O)[O-])o2)C(C)(C)c2ccccc21 | 20.9 | 30.3
C=CCOc1ccc(C2C(C#N)=C(N)N(Nc3ccccc3)C3=C2C(=O)CC(C)(C)C3)cc1OC (stereo unspecified) | 41.3 | > 100
O=C(N/N=C/c1ccc([N+](=O)[O-])o1)c1sc2ccccc2c1Cl | 5.69 | 8.72
S=C(Nc1ccc(Nc2ccccc2)cc1)Nc1ccccn1 | 48.6 | > 50
O=C(Nc1ccc(Oc2cccc(C(F)(F)F)c2)nc1)c1cccs1 | 85.3 | > 100
CCCCn1c(=O)c(C(=O)Nc2ncccc2C)c(O)c2ccccc21 | 17 | 22.1
CC(=O)c1ccc(Sc2nnnn2-c2ccccc2)c([N+](=O)[O-])c1 | 19.8 | 31.8
CC(C)Cc1ccc(C(C)C(N)=NCCc2ccccc2)cc1 (stereo unspecified) | 24.1 | 27.8
CN(C)S(=O)(=O)c1cccc(NC(=O)CSc2cccc3cccnc23)c1 | 60.6 | 68.2
CCN1c2ccccc2N(C)C1(C)c1ccccc1 (stereo unspecified) | 8.65 | 10.5
Cc1nn(-c2nc3ccccc3[nH]2)c(N)c1-c1ccc(Cl)cc1 | 3.72 | > 100
COC(=O)c1c(NC(=O)C(=O)N2CCCC2)sc2c1CC(C)(C)OC2 | 65.3 | > 100
c1ccc(-c2ccccc2OCCCCn2ccnc2)cc1 | 23.3 | 26.9
Cc1ccc(NC(=O)CSc2nc3ccccc3c(=O)n2CCCN2CCCCC2)cc1Cl | 36.6 | 79.2
CCOC(=O)N1CCC(N2Cc3cccc(C(=O)Nc4ccc(N(CC)CC)cc4C)c3C2=O)CC1 | 35.3 | > 100
c1ccc(-c2nc(N3CCCC3)nc3ccccc23)cc1 | 47 | 53.5
Cc1ccc(C(=O)C[n+]2cc(-c3ccc(C)cc3)n3c2CCCCC3)cc1 | 22.5 | 25.4
Cc1cc(N2CCC(C)CC2)nc(-n2nc(C)cc2C)n1 | 0.97 | 2.97
Cc1c(CN2CCC(CO)(Cc3cccc(C(F)(F)F)c3)CC2)c2ccccc2n1C | 31.2 | 39.6
CCOC(=O)N1CCN(Cc2cc(Cl)c3cccnc3c2O)CC1 | 21.8 | 24.7

Structure (SMILES) | IC50 [µM] | IC90 [µM]
Cn1nc(-c2ccccc2F)c2cc(C(=O)Nc3ccc4c(c3)OCCO4)sc21 | 41.7 | > 100
O=c1cc(-c2ccccc2Cl)oc2ccc([N+](=O)[O-])c(O)c12 | 21.4 | 28.2
CN(C)c1ccc(N=Nc2ccccc2C(=O)OCC(=O)NCC2CCCCC2)cc1 | 22.1 | 24.9
CC(C)OC(=O)c1ccc(COC(=O)c2cnccn2)cc1 | 18 | > 100
CCOC(=O)Cn1nc(-c2ccccc2)nc1-c1ccccc1 | 13.1 | 29.4
O=C(COc1cccc(Oc2ccccc2)c1)Nc1ncccn1 | 50.4 | > 100
CCOC(=O)C1CCN(c2cc3c(cc2NC(=O)c2ccccc2Cl)n(C)c(=O)n3C)CC1 | 44.8 | 51.2
N#CC(C(=O)Nc1ccccc1)=C1Nc2ccccc2N1 | 39.1 | > 100
Cc1cccc(OCC(=O)NNC(=O)c2cc3ccccc3oc2=O)c1 | – | > 100
Cn1cccc1/C=C1/C(=O)NC(=S)N(Cc2ccc(F)cc2)C1=O | – | > 100
CNC(=S)Nc1ccc(N2CCN(c3ccc(C(F)(F)F)cn3)CC2)nc1 | 9.42 | > 100
Cc1ccc(C)c(NNC(N)=S)c1 | 16 | 29.2
CC(C)(C)c1cc(-c2nc(N)nc(N)n2)c(O)c(C(C)(C)C)c1 | 90.4 | 96
S=c1nc[nH]c2nc[nH]c12 | 3.32 | 5.19
CCCC(NCC(O)COc1ccc(-c2ccccc2)cc1)c1ccccc1 (stereo unspecified) | 12.8 | 14.7
COC(=O)CCCCC1SCC(NC(=O)c2ccccc2)C1=O (stereo unspecified) | 36.9 | 49.8
Cc1nc2scc(-c3cccs3)c2c(=O)n1-n1cccc1 | 88.7 | > 100
Cc1ccc(NC(=O)Cc2ccc(-c3ccccc3)cc2)nc1 | 86.6 | > 100
O=C(NC1CCN(C(=O)N2c3ccccc3Sc3ccccc32)CC1)c1ccccc1F | – | > 100
COc1ccc(-c2ccc(C#N)c(SCC(=O)OCc3ccccc3)n2)cc1OC | 23.9 | 26.8
CSC1=NC(C)(C)C=C(/C=C/c2ccc(Cl)cc2)N1 | 38.3 | 56.7
